In patent publication US11224619B2, “Formulations and methods for treatment of inflammatory skin diseases” (Zemtsov Enterprises, LLC, priority 2012, dated 2022):

System: atopic dermatitis / plaque psoriasis
Experiment: Response of individual study subjects to earlier therapy

`CC(=O)OCC(=O)[C@@]12OC(C)(C)O[C@@H]1C[C@H]1[C@@H]3C[C@H](F)C4=CC(=O)C=C[C@]4(C)[C@@]3(F)[C@@H](O)C[C@@]12C` [fluocinonide] was tested, and the “Response to earlier therapy” value (Subject #5, persistent psoriatic lesions on the abdomen) was “unresponsive”.
In the case of `C[C@H]1C[C@H]2[C@@H]3CCC4=CC(=O)C=C[C@]4(C)[C@@]3(F)[C@@H](O)C[C@]2(C)[C@@]1(O)C(=O)CCl` [clobetasol], the “Response to earlier therapy” value (Subject #2, chronic atopic dermatitis on the neck) is reported as “unresponsive”.
In the case of etanercept, the “Disease control under ongoing therapy” value (Subject #5, chronic severe plaque psoriasis, subcutaneous injections) is reported as “reasonable control”.
